Earlier results as cited in patent US6423677B1, “Cleaner/degreaser concentrate compositions” (Buckeye International, Inc., priority 1995, dated 2002).

conditions: in water, ambient temperature

aqueous ambient temperature solubility	SMILES
1.0 wt. %	c1ccc(N2CCOCC2)cc1 [N-phenylmorpholine]
0.5 wt. %	CC(=O)c1ccccc1 [acetophenone]
4.4 wt. %	OCc1ccccc1 [benzyl alcohol]
0.43 wt. %	CCOC(=O)CCCCC(=O)OCC [diethyl adipate]
0.88 wt. %	CCOC(=O)CCCC(=O)OCC [diethyl glutarate]
2.08 wt. %	CCOC(=O)CC(=O)OCC [diethyl malonate]
2.0 wt. %	CC(=O)CC(C)C [methylisobutyl ketone]
0.25 wt. %	CCCCCOC(C)=O [n-amyl acetate]
2.7 wt. %	CCCCCO [n-amyl alcohol]
1.6 wt. %	OCCc1ccccc1 [β-phenylethanol]

The remaining lines, values behind:

SMILES	aqueous ambient temperature solubility
CC(O)COc1ccccc1 (centres unmarked) [1-phenoxy-2-propanol]	1.1 wt. %
OCCOc1ccccc1 [2-phenoxyethanol]	2.3 wt. %
CCN(CC)c1ccccc1 [N,N-diethylaniline]	1.4 wt. %
O=Cc1ccccc1 [benzaldehyde]	0.3 wt. %
O=C1CCCCC1 [cyclohexanone]	2.3 wt. %
CC1=CC(=O)CC(C)(C)C1 [isophorone]	1.2 wt. %
CCCCOC(C)=O [n-butyl acetate]	0.7 wt. %
CC[N+](=O)[O-] [nitroethane]	4.5 wt. %

same assay, conditions: in water; solvents not useful in the invention

aqueous solubility	SMILES
infinite	CN1CCCC1=O [N-methyl pyrrolidone]
19.6 wt. %	CC1COC(=O)O1 (centres unmarked) [propylene carbonate]
16.5 wt. %	COCC(C)OC(C)=O (centres unmarked) [propylene glycol monomethyl ether acetate]

Continued, molecule first:

SMILES	aqueous solubility
CC(C)CC(=O)CC(C)C [2,6-dimethyl-4-heptanone]	0.05 wt. %
CCCCC(CC)COCCO (centres unmarked) [2-(2-ethylhexoxy)-ethanol]	0.095 wt. %
